Measured values as given in ChEMBL document CHEMBL1126625, “7-Azetidinylquinolones as antibacterial agents. Synthesis and structure-activity relationships” (J Med Chem, 1993).
In brackets after ≈: the same amount, converted by molar mass.

Legend:
Assay type in all cases: functional
Staphylococcus aureus = assay: Minimum inhibitory concentration (MIC) preventing growth of […]
Escherichia coli = assay: Minimum inhibitory concentration (MIC)preventing growth of Escherichia coli
Enterococcus faecalis = assay: Minimum inhibitory concentration (MIC) preventing growth of Streptococcus faecalis ATCC 10541
Proteus vulgaris = assay: Minimum inhibitory concentration (MIC) preventing growth of Proteus vulgaris
Morganella morganii = assay: Minimum inhibitory concentration (MIC) preventing growth of Morganella morganii
Enterobacter cloacae = assay: Minimum inhibitory concentration (MIC)preventing growth of Enterobacter cloacae
Klebsiella pneumoniae = assay: Minimum inhibitory concentration (MIC)preventing growth of Klebsiella pneumoniae
Bacillus cereus = assay: Minimum inhibitory concentration (MIC) preventing growth of Bacillus cereus
Pseudomonas aeruginosa = assay: Minimum inhibitory concentration (MIC)preventing growth of Pseudomonas aeruginosa
Bacillus subtilis = assay: Minimum inhibitory concentration (MIC) preventing growth of Bacillus subtilis
[1] = test system: Staphylococcus epidermidis; assay: Minimum inhibitory concentration (MIC) preventing growth of Staphylococcus epidermidis

Compound | MIC (Staphylococcus aureus) | MIC (Escherichia coli) | MIC (Enterococcus faecalis) | MIC (Proteus vulgaris) | MIC (Morganella morganii) | MIC (Enterobacter cloacae) | MIC (Klebsiella pneumoniae) | MIC (Bacillus cereus) | MIC (Pseudomonas aeruginosa) | MIC (Bacillus subtilis) | MIC [1]
CCC1(O)CN(c2cc3c(cc2F)c(=O)c(C(=O)O)cn3C2CC2)C1 | 0.12 µg/mL (≈ 0.346 µM) | 0.12 µg/mL (≈ 0.346 µM) | 1 µg/mL (≈ 2.89 µM) | 0.25 µg/mL (≈ 0.722 µM) | 0.5 µg/mL (≈ 1.44 µM) | 0.25 µg/mL (≈ 0.722 µM) | 0.12 µg/mL (≈ 0.346 µM) | 1 µg/mL (≈ 2.89 µM) | 2 µg/mL (≈ 5.77 µM) | 0.015 µg/mL (≈ 0.0433 µM) | 0.12 µg/mL (≈ 0.346 µM)
CCNCC1(C)CN(c2cc3c(cc2F)c(=O)c(C(=O)O)cn3C2CC2)C1 | 0.25 µg/mL (≈ 0.669 µM) | 0.12 µg/mL (≈ 0.321 µM) | 1 µg/mL (≈ 2.68 µM) | 0.25 µg/mL (≈ 0.669 µM) | 0.5 µg/mL (≈ 1.34 µM) | 0.25 µg/mL (≈ 0.669 µM) | 0.5 µg/mL (≈ 1.34 µM) | 0.12 µg/mL (≈ 0.321 µM) | 4 µg/mL (≈ 10.7 µM) | 0.12 µg/mL (≈ 0.321 µM) | 0.5 µg/mL (≈ 1.34 µM)
N#CC1CN(c2c(F)cc3c(=O)c(C(=O)O)cn(C4CC4)c3c2F)C1 | 1 µg/mL (≈ 2.9 µM) | 1 µg/mL (≈ 2.9 µM) | 4 µg/mL (≈ 11.6 µM) | 1 µg/mL (≈ 2.9 µM) | 1 µg/mL (≈ 2.9 µM) | 1 µg/mL (≈ 2.9 µM) | 0.5 µg/mL (≈ 1.45 µM) | 0.5 µg/mL (≈ 1.45 µM) | 8 µg/mL (≈ 23.2 µM) | 0.06 µg/mL (≈ 0.174 µM) | 0.5 µg/mL (≈ 1.45 µM)
Nc1c(F)c(N2CC(N)C2)c(F)c2c1c(=O)c(C(=O)O)cn2C1CC1 | 0.06 µg/mL (≈ 0.171 µM) | 0.015 µg/mL (≈ 0.0428 µM) | 0.25 µg/mL (≈ 0.714 µM) | 0.06 µg/mL (≈ 0.171 µM) | 0.015 µg/mL (≈ 0.0428 µM) | 0.015 µg/mL (≈ 0.0428 µM) | 0.015 µg/mL (≈ 0.0428 µM) | 0.015 µg/mL (≈ 0.0428 µM) | 0.25 µg/mL (≈ 0.714 µM) | 0.015 µg/mL (≈ 0.0428 µM) | 0.12 µg/mL (≈ 0.343 µM)
CC1(N)CN(c2c(F)cc3c(=O)c(C(=O)O)cn(CCF)c3c2Cl)C1 | 0.25 µg/mL (≈ 0.672 µM) | 0.06 µg/mL (≈ 0.161 µM) | 1 µg/mL (≈ 2.69 µM) | 1 µg/mL (≈ 2.69 µM) | 0.015 µg/mL (≈ 0.0403 µM) | 0.015 µg/mL (≈ 0.0403 µM) | 0.015 µg/mL (≈ 0.0403 µM) | 0.5 µg/mL (≈ 1.34 µM) | 1 µg/mL (≈ 2.69 µM) | 0.06 µg/mL (≈ 0.161 µM) | 0.12 µg/mL (≈ 0.323 µM)
CCNC1CN(c2cc3c(cc2F)c(=O)c2c(=O)[nH]sc2n3C2CC2)C1 | 0.06 µg/mL (≈ 0.16 µM) | 0.03 µg/mL (≈ 0.0801 µM) | 0.5 µg/mL (≈ 1.34 µM) | 0.12 µg/mL (≈ 0.32 µM) | 0.06 µg/mL (≈ 0.16 µM) | 0.03 µg/mL (≈ 0.0801 µM) | 0.03 µg/mL (≈ 0.0801 µM) | 0.12 µg/mL (≈ 0.32 µM) | 0.5 µg/mL (≈ 1.34 µM) | 0.03 µg/mL (≈ 0.0801 µM) | 0.06 µg/mL (≈ 0.16 µM)
CC1(N)CN(c2cc3c(cc2F)c(=O)c2c(=O)[nH]sc2n3C2CC2)C1 | 0.06 µg/mL (≈ 0.166 µM) | 0.015 µg/mL (≈ 0.0416 µM) | 0.12 µg/mL (≈ 0.333 µM) | 0.06 µg/mL (≈ 0.166 µM) | 0.015 µg/mL (≈ 0.0416 µM) | 0.015 µg/mL (≈ 0.0416 µM) | 0.015 µg/mL (≈ 0.0416 µM) | 0.03 µg/mL (≈ 0.0832 µM) | 0.25 µg/mL (≈ 0.694 µM) | 0.015 µg/mL (≈ 0.0416 µM) | 0.03 µg/mL (≈ 0.0832 µM)
CC(=O)OC1CN(c2c(F)cc3c(=O)c(C(=O)O)cn(C4CC4)c3c2F)C1 | 0.12 µg/mL (≈ 0.317 µM) | 0.12 µg/mL (≈ 0.317 µM) | 2 µg/mL (≈ 5.29 µM) | 0.12 µg/mL (≈ 0.317 µM) | 0.25 µg/mL (≈ 0.661 µM) | 0.12 µg/mL (≈ 0.317 µM) | 0.015 µg/mL (≈ 0.0396 µM) | 0.12 µg/mL (≈ 0.317 µM) | 2 µg/mL (≈ 5.29 µM) | 0.015 µg/mL (≈ 0.0396 µM) | 0.12 µg/mL (≈ 0.317 µM)

Continued, values first:

MIC (Staphylococcus aureus) | MIC (Escherichia coli) | MIC (Enterococcus faecalis) | MIC (Proteus vulgaris) | MIC (Morganella morganii) | MIC (Enterobacter cloacae) | MIC (Klebsiella pneumoniae) | MIC (Bacillus cereus) | MIC (Pseudomonas aeruginosa) | MIC (Bacillus subtilis) | MIC [1] | Compound
0.12 µg/mL (≈ 0.331 µM) | 0.06 µg/mL (≈ 0.166 µM) | 1 µg/mL (≈ 2.76 µM) | 0.25 µg/mL (≈ 0.69 µM) | 0.25 µg/mL (≈ 0.69 µM) | 0.12 µg/mL (≈ 0.331 µM) | 0.015 µg/mL (≈ 0.0414 µM) | 0.06 µg/mL (≈ 0.166 µM) | 2 µg/mL (≈ 5.52 µM) | 0.015 µg/mL (≈ 0.0414 µM) | 0.12 µg/mL (≈ 0.331 µM) | CNC1(C)CN(c2nc3c(cc2F)c(=O)c(C(=O)O)cn3C(C)(C)C)C1
1 µg/mL (≈ 2.75 µM) | 0.5 µg/mL (≈ 1.38 µM) | 2 µg/mL (≈ 5.5 µM) | 1 µg/mL (≈ 2.75 µM) | 3 µg/mL (≈ 8.26 µM) | 0.5 µg/mL (≈ 1.38 µM) | 0.25 µg/mL (≈ 0.688 µM) | 0.5 µg/mL (≈ 1.38 µM) | 4 µg/mL (≈ 11 µM) | 0.25 µg/mL (≈ 0.688 µM) | 0.5 µg/mL (≈ 1.38 µM) | CC1(CN)CN(c2c(F)cc3c(=O)c(C(=O)O)cn(C4CC4)c3c2F)C1
0.25 µg/mL (≈ 0.707 µM) | 0.03 µg/mL (≈ 0.0848 µM) | 1 µg/mL (≈ 2.83 µM) | 0.5 µg/mL (≈ 1.41 µM) | 0.06 µg/mL (≈ 0.17 µM) | 0.06 µg/mL (≈ 0.17 µM) | 0.03 µg/mL (≈ 0.0848 µM) | 0.25 µg/mL (≈ 0.707 µM) | 1 µg/mL (≈ 2.83 µM) | 0.06 µg/mL (≈ 0.17 µM) | 0.25 µg/mL (≈ 0.707 µM) | CCn1cc(C(=O)O)c(=O)c2cc(F)c(N3CC(C)(N)C3)c(Cl)c21
0.25 µg/mL (≈ 0.752 µM) | 0.03 µg/mL (≈ 0.0903 µM) | 0.5 µg/mL (≈ 1.5 µM) | 0.25 µg/mL (≈ 0.752 µM) | 0.06 µg/mL (≈ 0.181 µM) | 0.03 µg/mL (≈ 0.0903 µM) | 0.03 µg/mL (≈ 0.0903 µM) | 0.12 µg/mL (≈ 0.361 µM) | 0.5 µg/mL (≈ 1.5 µM) | 0.06 µg/mL (≈ 0.181 µM) | 0.12 µg/mL (≈ 0.361 µM) | CNC1CN(c2nc3c(cc2F)c(=O)c(C(=O)O)cn3C2CC2)C1
